Laboratory results from patent US12201620B2, “Compositions and methods for treating chemotherapy resistant cancer” (The Brigham And Women's Hospital, Inc., priority 2016, dated 2025).
Entries after “also recorded” stand apart in the source; their conditions may differ.

How the values were obtained:
[1] = tested on: Molm13 PPM1D-mutant pooled cells and control pooled cells; assay: In vitro competition experiment, PPM1D-mutant cells mixed with control cells; assay type: cell-based, human; conditions: 1:9 ratio, 100 nM cytarabine plus 100 nM GSK2830371
Method: FIG. 2B provides immunoblots of whole cell lysates from Molm13 control cells (control), PPM1D-mutant pooled clones and PPM1D frame-shift (fs) mutant single cell clones probed with anti-PPM1D and anti-Actin. […] FIG. 2D is a plot depicting viability assays in Molm13 PPM1D-mutant or control single cells clones that were treated with increasing concentrations of cyclophosphamide for 72 hours. FIG. 2E is a plot depicting viability assays in Molm13 PPM1D-mutant or control single cells clones that were treated with increasing concentrations of cisplatin for 72 hours. […] FIG. […] FIG. […] PPM1D and control sgRNAs were identified through their fluorophores.
(§1) 72 hour cell viability analysis in Molm13 PPM1D-mutant and control single cell clones after exposure to increasing doses of GSK2830371. FIG. 10F is a graph showing percent Annexin V positive cells in cells treated with PPM1D inhibitor or vehicle. Annexin V staining and flow cytometric analysis of Molm13 PPM1D-mutant and control single cell clones exposed to 3 μM of GSK2830371. *=p<0.05, **=p<0.01, ***=p<0.001
(§2) To study the sensitivity of PPM1D truncating mutations to chemotherapy exposure, frame-shift mutations were introduced in the PPM1D gene in Molm13 AML cells, which are TP53 wild-type, using CRISPR-Cas9.

[2] = tested on: Molm13 PPM1D-mutant and control single cell clones; assay: Annexin V staining and flow cytometric analysis; assay type: cell-based, human; conditions: 3 μM of GSK2830371
Text: FIG. 9E is a chart depicting the consensus sequence of PPM1D based on substrate analysis of 43 substrate candidates of PPM1D. FIG. 9F depicts 43 potential PPM1D substrate sites on pSer/Thr residues on 25 proteins. […] Only localized sites were considered. Figure discloses SEQ ID NOS 4-20 and 20-31, respectively, in order of appearance. FIG. 9G depicts a schema illustrating the components of the DNA-damage response pathway that are targeted by PPM1D in leukemia cells, based on the results from the phosphoproteomics analysis. Phospho-targets of PPM1D identified by mass spectrometry (FDR<0.1) are shown in bold. Predicted PPM1D target sites that were based on the identified consensus sequence with a glutamine at +1 and >2 acidic residues (p=3.595e-13, Fisher's exact test) are shown in italics.
as §1

[3] = tested on: Molm13 PPM1D-mutant and control single cell clones; assay: 72-hour cell viability analysis; assay type: cell-based, human
Method: FIG. 2B provides immunoblots of whole cell lysates from Molm13 control cells (control), PPM1D-mutant pooled clones and PPM1D frame-shift (fs) mutant single cell clones probed with anti-PPM1D and anti-Actin. […] FIG. 2D is a plot depicting viability assays in Molm13 PPM1D-mutant or control single cells clones that were treated with increasing concentrations of cyclophosphamide for 72 hours. FIG. 2E is a plot depicting viability assays in Molm13 PPM1D-mutant or control single cells clones that were treated with increasing concentrations of cisplatin for 72 hours. […] FIG. 2G is a plot depicting flow cytometric readout of competition experiment with 5% pooled Molm13 PPM1D-mutant cells and 95% pooled Molm13 control cells exposed to 350 nM Cyclophosphamide or vehicle for 24 days. FIG. 2H is a plot depicting flow cytometric readout of competition experiment with 5% pooled Molm13 PPM1D-mutant cells and 95% pooled Molm13 control cells exposed to 1 μM Cisplatin or vehicle for 24 days. […] PPM1D and control sgRNAs were identified through their fluorophores.
The line represents the locally weighted scatterplot smoothing (LOESS) of 0.1. […] FIG. 8B is a vector map of the degradation reporter vector, with different PPM1D cDNA constructs inserted. FIG. 8C is a graph showing EGFP/mCherry ratio for Molm13 cells with overexpression of wild type PPM1D, truncated PPM1D or the C-terminal end of PPM1D. FIG. 8D is a graph showing EGFP/mCherry ratio for Molm13 p53^−/− cells with overexpression of wild type PPM1D, truncated PPM1D or the C-terminal end of PPM1D. FIG. 8E is a graph showing EGFP/mCherry ratio in Molm13 cells before and after exposure to MG132 (10 μM, 6 hours), normalized to pre-treatment values. FIG. 8F is a plot showing cell viability analysis in Molm13 control cells (control), Molm13 PPM1D truncating mutant cells (PPM1D mutant) and Molm13 cells with overexpression of wild-type PPM1D (WT overexpression). […] For all experiments the following apply: *=p<0.05, **=p<0.01, ***=p<0.001,****=p<0.0001
as §1
To study the role of PPM1D mutations in chemotherapy resistance, mutations in PPM1D were induced using the CRISPR-Cas9 system. […] Using sequence verified PPM1D mutant (fs) and empty vector control Molm13 cells, the effects of mutant and wild type PPM1D in the response to DNA damaging chemotherapy were analyzed. […] (FIG. 1C).
as §2

[4] = biological target: T1, PPM1D phosphatase (Homo sapiens, UniProt O15297); conditions: Gilmartin et al. 2014; cited from earlier work
T1 sequence (O15297 1-605): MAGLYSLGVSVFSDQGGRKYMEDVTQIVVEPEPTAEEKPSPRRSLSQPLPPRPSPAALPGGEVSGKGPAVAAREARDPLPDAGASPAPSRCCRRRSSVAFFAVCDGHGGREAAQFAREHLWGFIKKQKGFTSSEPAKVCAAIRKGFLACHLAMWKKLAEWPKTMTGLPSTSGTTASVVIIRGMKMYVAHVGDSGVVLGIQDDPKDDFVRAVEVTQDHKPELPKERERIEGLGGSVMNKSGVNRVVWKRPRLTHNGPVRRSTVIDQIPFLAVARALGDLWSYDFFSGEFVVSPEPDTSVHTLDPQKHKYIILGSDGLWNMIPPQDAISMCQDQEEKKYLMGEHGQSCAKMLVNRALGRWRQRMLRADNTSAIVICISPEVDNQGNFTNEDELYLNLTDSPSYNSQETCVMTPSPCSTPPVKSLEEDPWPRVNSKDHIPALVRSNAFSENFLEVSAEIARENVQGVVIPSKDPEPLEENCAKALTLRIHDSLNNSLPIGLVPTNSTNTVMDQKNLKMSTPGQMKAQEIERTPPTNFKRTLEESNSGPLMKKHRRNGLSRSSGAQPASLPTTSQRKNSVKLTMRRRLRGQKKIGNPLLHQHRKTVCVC

[5] = tested on: Molm13 PPM1D-mutant cells; assay: Quantitative phosphoproteomic analysis (KEGG P53 pathway phosphosites); assay type: cell-based, human; conditions: 400 nM AraC + 1 μM GSK2830371, 4 hours
Method: as §1
To explore the spectrum of PPM1D targets in hematopoietic cells, a quantitative phosphoproteomic analysis was performed in PPM1D wild-type and mutant cells at baseline and in response to chemotherapy. […] In addition, CDKN1A (p21) was identified as a new DNA damage response target of PPM1D. Based on the peptides with altered phosphorylation in PPM1D-mutant cells, a consensus sequence was identified for the serine-threonine phosphatase activity of PPM1D (FIGS. 9E and 9F). Because many phosphorylation sites are not located on peptides that are detected by mass spectrometry, the consensus sequence was used to predict additional PPM1D targets. Known PPM1D targets, including TP53, CHEK1, CHEK2, ATM, ATR and MDM2, bear the consensus target sequence. In addition, new phosphorylation sites were identified in components of the DNA damage response pathway that are predicted targets of PPM1D based on the consensus sequence. […]

[6] = tested on: Molm13 PPM1D-mutant and Molm13 control single cell clones; assay: Immunoblot of whole cell lysates for p53 Ser15 and Chk1 Ser345 phosphorylation; assay type: cell-based, human; conditions: Molm13 PPM1D-mutant cells, 1 hour pretreated with GSK2830371, exposed to 400 nM cytarabine

SMILES: Cc1ncc(Cl)cc1NCc1ccc(C(=O)N[C@@H](CC2CCCC2)C(=O)NC2CC2)s1 [GSK2830371]
- competitive advantage of PPM1D-mutant cells during cytarabine plus PPM1D inhibitor [1]: reversed the competitive advantage of PPM1D mutant cells; also recorded: could be reversed
- sensitivity of PPM1D-mutant cells versus control cells to single agent PPM1D inhibitor, Annexin V staining [2]: increased sensitivity to single agent PPM1D inhibitor treatment when compared to control cells
- sensitivity of PPM1D-mutant cells versus control cells to single agent PPM1D inhibitor, cell viability ([3]; 72 hour, increasing doses): PPM1D mutant cells had an increased sensitivity; also recorded: increased sensitivity to single agent PPM1D inhibitor treatment when compared to control cells; also recorded: increased sensitivity to PPM1D inhibition with either compound in comparison to wild type control cells; also recorded: selectively kills PPM1D-mutant cells
- sensitivity of PPM1D-mutant cells to cytarabine when combined with PPM1D inhibitor ([3]; pre-treated 1 hour with 3 μM GSK2830371, 72-hour cytarabine treatment): increased the sensitivity of Molm13 PPM1D-mutant cells to cytarabine; also recorded: reverses the chemotherapy resistance phenotype
- selectivity for the PPM1D phosphatase [4]: highly selective for the PPM1D phosphatase
- aberrant phosphorylation pattern of PPM1D-mutant cells in response to chemotherapy [5]: reversed the aberrant PPM1D mutant phosphorylation pattern; also recorded: complete reversal of the aberrant phosphorylation pattern
- p53 Ser15 phosphorylation with PPM1D inhibitor [6]: increased the phosphorylation of p53
- p53 Ser15 phosphorylation with PPM1D inhibitor ([6]; listed as GKS2830371): increased p53 Ser15 phosphorylation
